Read-outs that look alike come from different tables or passages of the source.
Assays:
[1] = system: 3D7 strain of Plasmodium falciparum; assay: In vitro antimalarial activity, 48-h [3H]-hypoxanthine incorporation assay; assay type: cell-based
Protocol: The 3D7 strain of Plasmodium falciparum was used in this study. This strain is known to be […] Parasites were maintained in continuous culture using the method of Jensen and Trager^4. […] Stock drug solutions were prepared in 100% dimethylsulphoxide (DMSO) and diluted to the appropriate concentration using complete medium. Assays were performed in sterile 96-well microlitre plates, each plate contained 200 μl of parasite culture (2% parasitemia, 0.5% haematocrit) with or without 10 μl drug dilutions. Each drug was tested in triplicate and parasite growth compared to control wells (which constituted 100% parasite growth). […] IC50 values were calculated by interpolation of the probit transformation of the log dose-response curve.

[2] = 3D7, 3D7 strain, mean of triplicate results, Table 5, read-out: Mean IC50
[3] = 3D7, sulfonamide dispiro 1,2,4,5-tetraoxanes, Table 8, read-out: Mean IC50

SMILES | melting point | IC50 [1, 2] | IC50 [1, 3] | also measured
O=C(CC1CCC2(CC1)OOC1(CCCCCCCCCCC1)OO2)N1CCOCC1 [Tetraoxane 28h, 1-Morpholin-4-yl-2-(7,8,21,22-tetraoxa-dispiro[5.2.11.2]docos-3-yl)-ethanone] | 118 to 120 °C | 0.0237 µM | – | –
O=C(CC1CCC2(CC1)OOC1(CCCCCCCCCCC1)OO2)N1CCSCC1 [Tetraoxane 28i, 2-(7,8,21,22-Tetraoxa-dispiro[5.2.11.2]docos-3-yl)-1-thiomorpholin-4-yl-ethanone] | 108 to 110 °C | 0.0269 µM | – | –
O=C1CCC2(CC1)OOC1(CCCCCCCCCCC1)OO2 [Tetraoxane 11, 7,8,21,22-Tetraoxa-dispiro[5.2.11.2]docosan-3-one] | 108 to 110 °C | – | – | –
O=C(CC1CCC2(CC1)OOC1(CCCCC1)OO2)NCCN1CCOCC1 [Tetraoxane 27f, N-(2-Morpholin-4-yl-ethyl)-2-(7,8,15,16-tetraoxa-dispiro[5.2.5.2]-hexadec-3-yl)-acetamide] | – | 0.0191 µM | – | –
O=C1CCC2(CC1)OOC1(CCCCC1)OO2 [Tetraoxane 10, 7,8,15,16-Tetraoxa-dispiro[5.2.5.2]hexadecan-3-one] | 78 to 80 °C | 0.006 µM | – | –
CCN(CC)CCNC(=O)CC1CCC2(CC1)OOC1(CCCCCCCCCCC1)OO2 [Tetraoxane 28g, N-(2-Diethylamino-ethyl)-2-(7,8,21,22-tetraoxa-dispiro[5.2.11.2]-docos-3-yl)-acetamide] | 64 to 66 °C | – | – | –
O=C1CCN(C(=O)N2CCOCC2)CC1 [Tetraoxane 34f, 1-(Morpholine-4-carbonyl)-piperidin-4-one] | – | – | – | IC50 ([1]; 3D7, read-out: Mean IC50): 0.0047 µM
O=C(CC1CCC2(CC1)OOC1(CCCCCCCCCCC1)OO2)NC1CC1 [Tetraoxane 28c, N-Cyclopropyl-2-(7,8,21,22-tetraoxa-dispiro[5.2.11.2]docos-3-yl)-acet-amide] | 136 to 138 °C | 0.0187 µM | – | –
O=C(CC1CCC2(CC1)OOC1(CCCCCCCCCCC1)OO2)N1CCS(=O)(=O)CC1 [Tetraoxane 31, 1-(1,1-Dioxo-1λ^6-thiomorpholin-4-yl)-2-(7,8,21,22-tetraoxa-dispiro[5.2.11.2]docos-3-yl)-ethanone] | 170 to 172 °C | 0.0926 µM | – | –
O=C(CC1CCC2(CC1)OOC1(CCCCC1)OO2)NCCN1CCCC1 [Tetraoxane 27d, N-(2-Pyrrolidin-1-yl-ethyl)-2-(7,8,15,16-tetraoxa-dispiro[5.2.5.2]-hexadec-3-yl)-acetamide] | 110 to 112 °C | 0.0191 µM | – | –
O=C(CC1CCC2(CC1)OOC1(OO2)C2CC3CC(C2)CC1C3)NCCN1CCCC1 (stereo not shown) [Tetraoxane 29d] | 142 to 144 °C | – | – | –
O=C(CC1CCC2(CC1)OOC1(CCCCCCCCCCC1)OO2)NCCN1CCCC1 [Tetraoxane 28d, N-(2-Pyrrolidin-1-yl-ethyl)-2-(7,8,21,22-tetraoxa-dispiro[5.2.11.2]do-cos-3-yl)-acetamide] | 108 to 110 °C | – | – | –
O=C(N1CCCCC1)N1CCC(OO)(OO)CC1 [Tetraoxane 34i, (4,4-dihydroperoxypiperidin-1-yl)(piperidin-1-yl)methanone] | – | – | – | IC50 ([1]; 3D7, read-out: Mean IC50): 0.0072 µM
CC(C)CN1CCN(C(=O)CC2CCC3(CC2)OOC2(OO3)C3CC4CC(C3)CC2C4)CC1 (stereo not shown) [Tetraoxane 29s] | – | 0.0027 µM | – | –
CC(C)S(=O)(=O)N1CCC2(CC1)OOC1(CCCCCCCCCCC1)OO2 [Tetraoxane 40c] | – | – | 0.0864 µM | –
CCN(CC)CCNC(=O)CC1CCC2(CC1)OOC1(CCCCC1)OO2 [Tetraoxane 27g, N-(2-Diethylamino-ethyl)-2-(7,8,15,16-tetraoxa-dispiro[5.2.5.2]-hexadec-3-yl)-acetamide] | – | 0.00515 µM | – | –
O=C(CC1CCC2(CC1)OOC1(CCCCC1)OO2)NCCN1CCCCC1 [Tetraoxane 27e, N-(2-Piperidin-1-yl-ethyl)-2-(7,8,15,16-tetraoxa-dispiro[5.2.5.2]-hexadec-3-yl)-acetamide] | 68 to 78 °C | 0.0192 µM | – | –
CCOC(=O)CC1CCC2(CC1)OOC1(CCCCC1)OO2 [Tetraoxane 27a, (7,8,15,16-Tetraoxa-dispiro[5.2.5.2]hexadec-3-yl)acetic acid ethyl ester] | – | 0.0242 µM | – | –
O=S(=O)(c1ccccc1)N1CCC2(CC1)OOC1(CCCCCCCCCCC1)OO2 [Tetraoxane 40d] | – | – | 0.131 µM | –

SMILES | melting point | IC50 [1, 2] | IC50 [1, 3] | also measured
C1CCC2(CC1)OOC1(CCC(NC3CC3)CC1)OO2 [Tetraoxane 14, Cyclopropyl-(7,8,15,16-tetraoxa-dispiro[5.2.5.2]hexadec-3-yl)-amine] | – | 0.02 µM | – | –
O=C(N1CCCCC1)N1CCC2(CC1)OOC1(CCCCC1)OO2 [Tetraoxane 34k] | – | – | – | IC50 ([1]; 3D7, read-out: Mean IC50): 0.007 µM
O=S(=O)(c1ccc(F)cc1)N1CCC2(CC1)OOC1(OO2)C2CC3CC(C2)CC1C3 [Tetraoxane 39g] | – | – | 0.0167 µM | –
CCS(=O)(=O)N1C2CCC1CC1(C2)OOC2(OO1)C1CC3CC(C1)CC2C3 (stereo not shown) [Tetraoxane 41d, Tropinone derived 1,2,4,5-tetraoxane] | – | – | 0.0606 µM | –
CS(=O)(=O)N1CCC2(CC1)OOC1(CCCCCCCCCCC1)OO2 [Tetraoxane 40a] | – | – | 0.0278 µM | –
C[C@@H]1CC[C@H]2[C@@H](C)C(=O)O[C@@H]3O[C@@]4(C)CC[C@@H]1[C@]32OO4 [Artemisinin, reference compound] | – | 0.0095 µM | 0.0092 µM | –
CCS(=O)(=O)N1CCC2(CC1)OOC1(CCCCCCCCCCC1)OO2 [Tetraoxane 40b] | – | – | 0.0291 µM | –
O=C(CC1CCC2(CC1)OOC1(OO2)C2CC3CC(C2)CC1C3)NCCN1CCCCC1 (stereo not shown) [Tetraoxane 29e, N-(2-Piperidin-1-yl-ethyl)-[adamantyl]acetamide] | 119 to 121 °C | – | – | –
O=S(=O)(c1ccc(Cl)cc1)N1CCC2(CC1)OOC1(OO2)C2CC3CC(C2)CC1C3 [Tetraoxane 39h] | – | – | 0.0227 µM | –
O=C(CC1CCC2(CC1)OOC1(CCCCCCCCCCC1)OO2)NCCN1CCCCC1 [Tetraoxane 28e, N-(2-Piperidin-1-yl-ethyl)-2-(7,8,21,22-tetraoxadispiro[5.2.11.2]-docos-3-yl)-acetamide] | 96 to 98 °C | – | – | –
CC(C)S(=O)(=O)N1CCC2(CC1)OOC1(OO2)C2CC3CC(C2)CC1C3 [Tetraoxane 39c] | – | – | 0.00587 µM | –
CS(=O)(=O)N1CCC2(CC1)OOC1(OO2)C2CC3CC(C2)CC1C3 [Tetraoxane 39a] | – | – | 0.0102 µM | –
O=S(=O)(CC(F)(F)F)N1CCC2(CC1)OOC1(OO2)C2CC3CC(C2)CC1C3 [Tetraoxane 39e] | – | – | 0.0143 µM | –
COC(=O)[C@@H](NC(=O)CC1CCC2(CC1)OOC1(OO2)C2CC3CC(C2)CC1C3)C(C)C (stereo in doubt) [Tetraoxane 29j, Adamantyl acetamide] | 108 to 110 °C | – | – | –
O=C(CC1CCC2(CC1)OOC1(CCCCCCCCCCC1)OO2)NCCN1CCOCC1 [Tetraoxane 28f, N-(2-Morpholin-4-yl-ethyl)-2-(7,8,21,22-tetraoxa-dispiro[5.2.11.2]do-cos-3-yl)-acetamide] | 78 to 80 °C | – | – | –
O=C(CC1CCC2(CC1)OOC1(OO2)C2CC3CC(C2)CC1C3)N1CCCCC1 (stereo not shown) [Tetraoxane 29m] | – | 0.0005 µM | – | –
O=S(=O)(c1ccc(C(F)(F)F)cc1)N1CCC2(CC1)OOC1(OO2)C2CC3CC(C2)CC1C3 [Tetraoxane 39i] | – | – | 0.0207 µM | –
O=C1CCC2(CC1)OOC1(OO2)C2CC3CC(C2)CC1C3 [Tetraoxane 12, adamantane tetraoxane ketone] | 156 to 158 °C | – | – | –
C1CCC2(CC1)OOC1(CCC(N3CCOCC3)CC1)OO2 [Tetraoxane 19, 4-(7,8,15,16-Tetraoxa-dispiro[5.2.5.2]hexadec-3-yl)-morpholine] | – | 0.0294 µM | – | –
